The test system of series [1] is HIV. Briefly: Inhibition of cytopathic effect (CPE) in HTLV-1 transformed MT-2 cells infected with HIV virus. In kind it is cell-based. The conditions noted are these: MT2, 168 h, anti-HIV in vitro, inhibition of CPE measured seven days after infection, read-out: ID50 (50% inhib. conc.). The method, then: The assays were done in HTLV-1 transformed MT-2 cells infected with HIV virus. Inhibition of cytopathic effect CPE) was measured seven days after infection in comparison with control infected cells (Elaine Kinney-Thomas,(Bioch. Pharm., vol.36,pp 311-316, 1987).
A general note: Damage to the host cells serves as the signal in cytopathic effect assays.

The conditions of series [2]: compared with ddA; cited from earlier work.
The subject of series [3] is HIV. The conditions noted are these: cited from earlier work; for anti-HIV activity: statement in words.

The values below come from US5126506A, “2',3'-Dideoxy-2'-fluoronucleosides” (Bristol-Myers Company, priority 1990, dated 1992).

Take `Nc1ccn([C@@H]2O[C@H](CO)C[C@@H]2F)c(=O)n1` [Compound 5, 2',3'-Dideoxy-2'-fluoroarabino-cytidine]: the IC50 in the series with HIV [1] was 4 µM. As to `Cc1cn([C@@H]2O[C@H](CO)C[C@@H]2F)c(=O)[nH]c1=O` [Compound 7, 2', 3'-Dideoxy-2'-fluoroarabino-thymidine], the IC50 with HIV [1] was > 100 µM. Take `Cc1cn([C@@H]2O[C@H](CO)C=C2F)c(=O)[nH]c1=O` [Compound 11, 2',3'-Dideoxy-2'3'-didehydro-2'-fluoro-thymidine]: in the series on HIV [1], the IC50 is 10 to 100 µM. Same read-out and setting: next, `Nc1ccn([C@@H]2O[C@H](CO)C=C2F)c(=O)n1` [Compound 16, 2',3'-Dideoxy-2',3'-dehydro-2'-fluoro-cytidine]: 15 to 48 µM. On to `Cc1cn([C@@H]2O[C@H](CO)[C@@H](N=[N+]=[N-])[C@@H]2F)c(=O)[nH]c1=O` [Compound 17, 2',3'-Dideoxy-2'-fluoroarabino-3'-azido-thymidine], for which the IC50 with HIV [1] was > 100 µM. Turning to `Nc1ncnc2c1ncn2[C@@H]1O[C@H](CO)C[C@H]1F` [Compound B, 6-amino-(β'D-2',3'-dideoxy-2'-fluororibofuranosyl)-9-H-purine], in series [2], the “toxicity relative to ddA” value is on record as “more toxic than ddA”. Further, in the series with HIV [3] (% of protection seen with ddA), the “protection against HIV relative to that seen with ddA” value is reported as 13%. Moreover, the anti-HIV activity result with HIV [3] is “active anti-HIV agents”.

Consider `Nc1ncnc2c1ncn2[C@@H]1O[C@H](CO)C[C@@H]1F` [Compound C, 6-amino-9-(β-D-2',3'-dideoxy-2'-fluoroarabinofuranosyl)-H-purine], for which, in the series with HIV [3] (compared with AZT or ddA), the “activity and potency against HIV relative to AZT or ddA” value was “about as active and potent as AZT or ddA”. Moreover, the anti-HIV activity result with HIV [3] is given as “active anti-HIV agents”.
